The record followed here is ChEMBL document CHEMBL5715954, “Silencing c-Myc translation as a therapeutic strategy through targeting PI3Kδ and CK1ε in hematological malignancies” (Blood, 2017).

Holding throughout (parameters): scale not given: the % may be the effect or the level left
Experiment [1] has as its target T1, Serine/threonine-protein kinase TAO2 (Homo sapiens) (UniProt Q9UL54).
T1 sequence (whole entry): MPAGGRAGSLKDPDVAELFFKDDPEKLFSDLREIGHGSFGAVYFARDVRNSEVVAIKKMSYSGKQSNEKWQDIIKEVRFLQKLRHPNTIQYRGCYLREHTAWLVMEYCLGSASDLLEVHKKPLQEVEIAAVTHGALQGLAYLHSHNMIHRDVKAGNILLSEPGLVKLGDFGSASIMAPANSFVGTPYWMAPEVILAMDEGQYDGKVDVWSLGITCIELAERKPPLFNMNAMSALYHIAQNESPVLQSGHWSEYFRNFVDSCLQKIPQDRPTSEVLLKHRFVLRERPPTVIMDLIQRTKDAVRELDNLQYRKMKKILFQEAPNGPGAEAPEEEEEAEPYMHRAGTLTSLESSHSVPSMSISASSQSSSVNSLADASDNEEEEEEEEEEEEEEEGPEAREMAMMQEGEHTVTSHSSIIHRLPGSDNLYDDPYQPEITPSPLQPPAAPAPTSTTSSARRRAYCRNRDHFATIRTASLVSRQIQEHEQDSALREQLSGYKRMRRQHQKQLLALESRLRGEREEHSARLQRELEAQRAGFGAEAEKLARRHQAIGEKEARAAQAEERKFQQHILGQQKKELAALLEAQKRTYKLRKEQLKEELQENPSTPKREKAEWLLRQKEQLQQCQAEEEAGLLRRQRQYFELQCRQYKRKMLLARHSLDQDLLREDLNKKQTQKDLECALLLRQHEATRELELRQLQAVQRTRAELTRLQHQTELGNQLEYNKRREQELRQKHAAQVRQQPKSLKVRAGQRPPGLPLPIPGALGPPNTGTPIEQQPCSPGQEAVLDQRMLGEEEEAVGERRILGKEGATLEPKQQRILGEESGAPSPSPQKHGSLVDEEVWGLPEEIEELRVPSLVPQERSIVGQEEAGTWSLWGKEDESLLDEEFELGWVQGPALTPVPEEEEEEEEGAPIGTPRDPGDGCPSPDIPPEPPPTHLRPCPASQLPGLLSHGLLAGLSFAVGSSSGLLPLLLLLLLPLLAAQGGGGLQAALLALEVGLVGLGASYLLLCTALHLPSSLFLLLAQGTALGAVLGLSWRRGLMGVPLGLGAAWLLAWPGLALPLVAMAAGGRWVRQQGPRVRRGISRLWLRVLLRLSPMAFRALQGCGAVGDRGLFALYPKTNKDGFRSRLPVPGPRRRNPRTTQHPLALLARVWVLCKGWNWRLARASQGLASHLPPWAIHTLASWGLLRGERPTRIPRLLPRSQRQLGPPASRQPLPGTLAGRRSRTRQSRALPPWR
The experiment can be described thus: Inhibition of human TAOK2 assessed as enzyme activity at 1 uM using myelin basic protein as substrate preincubated for 20 mins followed by [gamma-33P]-ATP addition and measured after 120 mins by radiometric Hot-SpotSM Kinase assay relative to control.

In experiment [2] the target is Serine/threonine-protein kinase MARK1 (Homo sapiens) (UniProt Q9P0L2). The experiment can be described thus: Inhibition of human MARK1 assessed as enzyme activity at 1 uM using KKKVSRSGLYRSPSMPENLNRPR as substrate preincubated for 20 mins followed by [gamma-33P]-ATP addition and measured after 120 mins by radiometric Hot-SpotSM Kinase assay relative to control.
Sequence of Serine/threonine-protein kinase MARK1 (Homo sapiens) (Q9P0L2 whole entry, looked up): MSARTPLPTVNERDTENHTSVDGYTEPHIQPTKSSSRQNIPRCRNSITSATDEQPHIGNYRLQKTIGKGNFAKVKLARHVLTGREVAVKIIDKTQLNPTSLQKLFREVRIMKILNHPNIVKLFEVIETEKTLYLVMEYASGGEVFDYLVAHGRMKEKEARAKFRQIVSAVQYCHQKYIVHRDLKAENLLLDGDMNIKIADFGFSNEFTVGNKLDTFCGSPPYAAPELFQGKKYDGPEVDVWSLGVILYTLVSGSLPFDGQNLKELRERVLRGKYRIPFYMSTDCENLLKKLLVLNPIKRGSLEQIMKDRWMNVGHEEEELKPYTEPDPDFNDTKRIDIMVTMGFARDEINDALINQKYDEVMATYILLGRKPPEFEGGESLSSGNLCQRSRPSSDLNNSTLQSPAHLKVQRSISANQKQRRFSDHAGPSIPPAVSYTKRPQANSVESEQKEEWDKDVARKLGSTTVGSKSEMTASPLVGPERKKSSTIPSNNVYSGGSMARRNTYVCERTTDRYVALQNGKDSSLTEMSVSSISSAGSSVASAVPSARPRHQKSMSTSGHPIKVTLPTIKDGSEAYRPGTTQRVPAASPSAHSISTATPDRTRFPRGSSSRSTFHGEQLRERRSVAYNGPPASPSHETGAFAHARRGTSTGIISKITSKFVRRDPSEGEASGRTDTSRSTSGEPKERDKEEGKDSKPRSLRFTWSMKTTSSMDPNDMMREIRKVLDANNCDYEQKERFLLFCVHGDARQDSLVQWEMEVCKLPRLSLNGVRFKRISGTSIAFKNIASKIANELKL
In experiment [3] the target is Ephrin type-A receptor 7 (Homo sapiens) (UniProt Q15375). The experiment can be described thus: Inhibition of human EPHA7 assessed as enzyme activity at 1 uM using poly[Glu:Tyr] (4:1) as substrate preincubated for 20 mins followed by [gamma-33P]-ATP addition and measured after 120 mins by radiometric Hot-SpotSM Kinase assay relative to control.
Sequence of Ephrin type-A receptor 7 (Homo sapiens) (Q15375 28-998 limits assumed): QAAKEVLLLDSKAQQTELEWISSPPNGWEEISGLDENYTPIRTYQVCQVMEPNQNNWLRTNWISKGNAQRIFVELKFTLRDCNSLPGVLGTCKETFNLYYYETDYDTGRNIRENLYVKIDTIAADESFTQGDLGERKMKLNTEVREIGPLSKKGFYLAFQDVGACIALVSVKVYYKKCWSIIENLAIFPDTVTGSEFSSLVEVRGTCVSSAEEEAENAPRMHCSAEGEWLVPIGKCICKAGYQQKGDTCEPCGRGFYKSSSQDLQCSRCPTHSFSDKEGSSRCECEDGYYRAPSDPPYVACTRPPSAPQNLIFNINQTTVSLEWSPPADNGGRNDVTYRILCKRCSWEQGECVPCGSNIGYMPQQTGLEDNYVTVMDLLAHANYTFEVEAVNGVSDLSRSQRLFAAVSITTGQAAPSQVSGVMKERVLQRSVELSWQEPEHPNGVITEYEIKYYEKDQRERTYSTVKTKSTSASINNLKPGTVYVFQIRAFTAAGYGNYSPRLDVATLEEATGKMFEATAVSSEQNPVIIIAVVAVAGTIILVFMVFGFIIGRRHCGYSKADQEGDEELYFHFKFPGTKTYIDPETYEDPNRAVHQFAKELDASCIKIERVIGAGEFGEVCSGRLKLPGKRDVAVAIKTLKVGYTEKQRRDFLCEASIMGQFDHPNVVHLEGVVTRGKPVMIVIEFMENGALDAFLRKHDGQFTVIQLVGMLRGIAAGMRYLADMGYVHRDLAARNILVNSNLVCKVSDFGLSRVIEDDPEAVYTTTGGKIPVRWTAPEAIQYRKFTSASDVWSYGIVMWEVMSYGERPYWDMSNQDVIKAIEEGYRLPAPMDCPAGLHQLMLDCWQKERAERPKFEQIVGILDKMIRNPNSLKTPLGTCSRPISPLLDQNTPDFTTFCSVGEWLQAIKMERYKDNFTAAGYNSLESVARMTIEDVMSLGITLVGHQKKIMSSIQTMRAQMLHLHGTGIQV
In experiment [4] the target is T2, Serine/threonine-protein kinase MAK (Homo sapiens) (UniProt P20794).
T2 sequence (whole entry): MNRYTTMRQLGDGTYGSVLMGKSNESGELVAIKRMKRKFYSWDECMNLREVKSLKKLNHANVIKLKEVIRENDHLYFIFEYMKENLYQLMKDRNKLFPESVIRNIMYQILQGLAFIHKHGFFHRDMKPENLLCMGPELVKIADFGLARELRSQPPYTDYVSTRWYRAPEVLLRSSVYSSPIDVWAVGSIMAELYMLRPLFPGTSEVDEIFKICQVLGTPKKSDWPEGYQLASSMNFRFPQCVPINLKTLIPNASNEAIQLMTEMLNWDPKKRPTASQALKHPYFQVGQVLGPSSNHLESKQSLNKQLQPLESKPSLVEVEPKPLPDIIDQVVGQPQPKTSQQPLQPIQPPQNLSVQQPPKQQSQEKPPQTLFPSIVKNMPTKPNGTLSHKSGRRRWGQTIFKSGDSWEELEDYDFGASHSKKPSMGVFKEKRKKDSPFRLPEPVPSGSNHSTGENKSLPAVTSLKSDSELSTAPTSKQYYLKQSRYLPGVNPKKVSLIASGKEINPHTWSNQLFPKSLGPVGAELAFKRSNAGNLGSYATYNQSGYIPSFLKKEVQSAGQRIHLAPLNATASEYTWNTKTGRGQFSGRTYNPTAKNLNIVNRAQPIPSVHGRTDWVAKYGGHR
Nature of the experiment: Inhibition of human MAK assessed as enzyme activity at 1 uM using myelin basic protein as substrate preincubated for 20 mins followed by [gamma-33P]-ATP addition and measured after 120 mins by radiometric Hot-SpotSM Kinase assay relative to control.

Experiment [5] deals with Serine/threonine-protein kinase 10 (Homo sapiens) (UniProt O94804). Nature of the experiment: Inhibition of human LOK/STK10 assessed as enzyme activity at 1 uM using RLGRDKYKTLRQIRQ as substrate preincubated for 20 mins followed by [gamma-33P]-ATP addition and measured after 120 mins by radiometric Hot-SpotSM Kinase assay relative to control.
Sequence of Serine/threonine-protein kinase 10 (Homo sapiens) (O94804 whole entry, looked up): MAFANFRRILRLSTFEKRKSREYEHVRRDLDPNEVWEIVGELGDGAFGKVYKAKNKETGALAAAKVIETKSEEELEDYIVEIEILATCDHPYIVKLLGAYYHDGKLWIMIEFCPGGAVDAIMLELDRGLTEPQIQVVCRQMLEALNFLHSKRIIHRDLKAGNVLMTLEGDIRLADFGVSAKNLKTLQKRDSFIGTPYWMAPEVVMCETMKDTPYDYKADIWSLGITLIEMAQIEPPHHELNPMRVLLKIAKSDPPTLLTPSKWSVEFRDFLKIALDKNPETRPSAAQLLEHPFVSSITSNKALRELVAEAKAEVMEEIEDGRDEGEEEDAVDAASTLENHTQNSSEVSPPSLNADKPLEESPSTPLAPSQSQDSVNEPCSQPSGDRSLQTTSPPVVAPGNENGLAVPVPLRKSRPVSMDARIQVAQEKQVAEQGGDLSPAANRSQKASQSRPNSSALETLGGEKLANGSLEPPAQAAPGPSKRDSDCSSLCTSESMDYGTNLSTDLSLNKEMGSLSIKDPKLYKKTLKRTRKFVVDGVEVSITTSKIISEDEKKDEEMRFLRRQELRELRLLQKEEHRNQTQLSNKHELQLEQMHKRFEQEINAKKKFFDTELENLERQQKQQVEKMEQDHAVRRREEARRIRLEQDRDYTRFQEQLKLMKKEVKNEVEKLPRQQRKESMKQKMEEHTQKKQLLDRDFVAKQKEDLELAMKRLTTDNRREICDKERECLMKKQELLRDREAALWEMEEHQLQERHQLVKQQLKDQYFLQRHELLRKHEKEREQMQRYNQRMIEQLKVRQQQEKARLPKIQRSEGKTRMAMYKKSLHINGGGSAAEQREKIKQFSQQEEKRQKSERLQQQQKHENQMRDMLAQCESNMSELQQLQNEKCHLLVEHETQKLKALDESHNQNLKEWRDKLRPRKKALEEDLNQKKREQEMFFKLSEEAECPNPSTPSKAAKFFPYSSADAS
The target of experiment [6] is Homeodomain-interacting protein kinase 3 (Homo sapiens) (UniProt Q9H422). The experiment can be described thus: Inhibition of human HIPK3 assessed as enzyme activity at 1 uM using myelin basic protein as substrate preincubated for 20 mins followed by [gamma-33P]-ATP addition and measured after 120 mins by radiometric Hot-SpotSM Kinase assay relative to control.
Sequence of Homeodomain-interacting protein kinase 3 (Homo sapiens) (Q9H422 whole entry, looked up): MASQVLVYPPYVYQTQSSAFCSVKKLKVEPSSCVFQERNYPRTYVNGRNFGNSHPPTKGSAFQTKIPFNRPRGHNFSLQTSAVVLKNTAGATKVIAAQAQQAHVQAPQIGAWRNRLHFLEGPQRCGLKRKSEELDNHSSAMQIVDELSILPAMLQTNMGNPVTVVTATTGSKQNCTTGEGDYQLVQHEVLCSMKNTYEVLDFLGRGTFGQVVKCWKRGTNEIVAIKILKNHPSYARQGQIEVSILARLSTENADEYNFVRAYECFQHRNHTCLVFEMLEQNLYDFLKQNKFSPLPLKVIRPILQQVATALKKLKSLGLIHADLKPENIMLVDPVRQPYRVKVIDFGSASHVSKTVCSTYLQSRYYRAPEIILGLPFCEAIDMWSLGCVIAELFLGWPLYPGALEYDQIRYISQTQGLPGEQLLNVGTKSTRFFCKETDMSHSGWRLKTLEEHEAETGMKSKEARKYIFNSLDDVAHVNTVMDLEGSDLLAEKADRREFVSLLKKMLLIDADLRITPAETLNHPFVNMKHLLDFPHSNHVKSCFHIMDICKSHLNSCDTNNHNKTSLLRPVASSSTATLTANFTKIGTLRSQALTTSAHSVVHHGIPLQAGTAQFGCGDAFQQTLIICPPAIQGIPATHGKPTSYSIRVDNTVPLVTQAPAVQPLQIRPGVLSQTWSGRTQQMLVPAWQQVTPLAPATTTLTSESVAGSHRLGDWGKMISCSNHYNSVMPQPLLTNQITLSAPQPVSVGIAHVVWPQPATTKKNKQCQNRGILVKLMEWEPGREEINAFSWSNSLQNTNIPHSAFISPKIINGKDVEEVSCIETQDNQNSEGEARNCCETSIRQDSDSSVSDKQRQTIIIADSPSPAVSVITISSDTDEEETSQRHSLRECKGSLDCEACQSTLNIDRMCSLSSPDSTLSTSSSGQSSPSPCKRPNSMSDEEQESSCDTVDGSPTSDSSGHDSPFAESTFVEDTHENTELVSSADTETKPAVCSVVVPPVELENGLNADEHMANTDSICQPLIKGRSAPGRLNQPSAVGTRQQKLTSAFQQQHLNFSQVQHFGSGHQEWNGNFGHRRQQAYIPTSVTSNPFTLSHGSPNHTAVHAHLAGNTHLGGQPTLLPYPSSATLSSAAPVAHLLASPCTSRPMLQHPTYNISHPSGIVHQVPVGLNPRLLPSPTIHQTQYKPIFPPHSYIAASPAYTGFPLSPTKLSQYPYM

Turning to `C[C@H](Nc1ncnc2nc[nH]c12)c1cc2cccc(Cl)c2c(=O)n1-c1ccccc1`, the Activity in experiment [1] was 93.3%; in experiment [2] it was 93.3%; in experiment [3] it was 93.4%; in experiment [4] it was 98.5%; in experiment [5] it was 94.4%; in experiment [6], 105%.

Consider `CC[C@H](Nc1ncnc2[nH]cnc12)c1nc2cccc(F)c2c(=O)n1-c1ccccc1`, for which the Activity in experiment [1] worked out at 96.7%; in experiment [2], 99.9%; in experiment [3], 89.7%; in experiment [4], 92.5%; in experiment [5] it was 94.4%; in experiment [6], 108%.

Turning to `CC(C)Oc1ccc(-c2nn([C@@H](C)c3oc4ccc(F)cc4c(=O)c3-c3cccc(F)c3)c3ncnc(N)c23)cc1F` [UMBRALISIB], the Activity worked out at 97.3% in experiment [1]; 96.2% in experiment [2]; 88.7% in experiment [3]; 96.5% in experiment [4]; 99% in experiment [5]; 103% in experiment [6].
